The values that follow come from patent publication US5854204A, “Aβ peptides that modulate β-amyloid aggregation” (priority 1996, dated 1998).

Assay [1] concerns the target T1, Aβ1-40 (Homo sapiens, UniProt P05067).
From the text: (§1) The nucleation assay is employed to determine the ability of test compounds to alter (e.g. inhibit) the early events in formation of β-AP fibers from monomeric β-AP. […] The time delay before polymerization of β-AP monomer can be quantified as well as the extent of formation of insoluble fiber by light scattering (turbidity). Polymerization reaches equilibrium when the maximum turbidity reaches a plateau. […] The threshold of sensitivity for the measurement of turbidity is in the range of 15-20 μM β-AP. […] This assay can be performed using stirring or shaking to accelerate polymerization, thereby increasing the speed of the assay. Moreover the assay can be adapted to a 96-well plate format to screen multiple compounds.
(§2) HFIP-solubilized peptide is sonicated in a waterbath sonicator for 5 min at highest setting, then evaporated to dryness under a stream of argon. […] Test compounds are dissolved in DMSO at a 100× concentration. […] Ten microliters of the mixture is then added to the bottom of a well of a Corning Costar ultra low binding 96-well plate (Corning Costar, Cambridge Mass.; cat. No. 2500). […] The plate is then returned to the shaker and shaken continuously for 5 hours. Turbidity readings are taken at 15 minute intervals.
(§3) Accordingly a fold increase in lag time of 1.0 indicates no change in lag time, whereas numbers >1.0 indicate an increase in lag time. The "% inhibition of plateau", which is a measure of the ability of the compound to decrease the total amount of aggregation, refers to the reduction of the final turbidity in the presence of the test compound expressed as a percent of the control without the test compound.
Assay [2] addresses T1, Aβ1-40. In words: biochemical. The note with it: read-out: % Inucl'n (percent reduction in maximum turbidity).
From the text: as §1, §2, §3
Assay [3] has as its target T1, Aβ1-40. In words: Seeded extension assay (thioflavin T fluorescence). In kind it is biochemical. More on the design: Natural β-AP (β-AP1-40) was obtained commercially from Bachem (Torrance, Calif.); purchased Bachem (Torrance, Calif.). The note with it: Table V; 25 mole % inhibitor. Here is the method:
The seeded extension assay can be employed to measure the rate of Aβ fiber formed in a solution of Aβ monomer following addition of polymeric Aβ fiber "seed". The ability of test compounds to prevent further deposition of monomeric Aβ to previously deposited amyloid is determined using a direct indicator of β-sheet formation using fluorescence. In contrast with the nucleation assay, the addition of seed provides immediate nucleation and continued growth of preformed fibrils without the need for continuous mixing, and thus results in the absence of a lag time before polymerization starts. Since this assay uses static polymerization conditions, the activity of positive compounds in the nucleation assay can be confirmed in this second assay under different conditions and with an additional probe of amyloid structure.
Samples of the solution are then diluted in thioflavin T (Th-T). The polymer-specific association of Th-T with Aβ produces a fluorescent complex that allows the measurement of the extent of fibril formation (Levine, H. (1993) Protein Science 2:404-410). In particular, association of Th-T with aggregated β-AP, but not monomeric or loosely associated β-AP, gives rise to a new excitation (ex) maximum at 450 nm and an enhanced emission (em) at 482 nm, compared to the 385 nm (ex) and 445 nm (em) for the free dye. Small aliquots of the polymerization mixture contain sufficient fibril to be mixed with Th-T to allow the monitoring of the reaction mixture by repeated sampling. A linear growth curve is observed in the presence of excess monomer. The formation of thioflavin T responsive β-sheet fibrils parallels the increase in turbidity observed using the nucleation assay.
To prepare the stock seed, 1 ml of the Aβ monomer preparation, is incubated for approximately 8 days at 37° C. and sheared sequentially through an 18, 23, 26 and 30 gauge needle 25, 25, 50, and 100 times respectively. 2 μl samples of the sheared material is taken for fluorescence measurements after every 50 passes through the 30 gauge needle until the fluorescence units (FU) plateau (approx. 100-150×). Test compounds are prepared by dissolving an appropriate amount of test compound in 1× PBS to a final concentration of 1 mM (10× stock). If insoluble, the compound is dissolved in 1/10 volume of DMSO and diluted in 1× PBS to 1 mM. A further 1/10 dilution is also prepared to test each candidate at both 100 μM and 10 μM.
To perform the seeded extension assay, each sample is set up with 50 μl of 200 μM monomer, 125 FU sheared seed (a variable quantity dependent on the batch of seed, routinely 3-6 μl) and 10 μl of 10× modulator solution. The sample volume is then adjusted to a final volume of 100 μl with 1× PBS. Two concentrations of each modulator typically are tested: 100 μM and 10 μM, equivalent to a 1:1 and a 1:10 molar ratio of monomer to modulator. The controls include an unseeded reaction to confirm that the fresh monomer contains no seed, and a seeded reaction in the absence of any modulators, as a reference to compare against candidate modulators. The assay is incubated at 37° C. for 6 h, taking 2 μl samples hourly for fluorescence measurements. To measure fluorescence, a 2 μl sample of Aβ is added to 400 μl of Thioflavin-T solution (50 mM Potassium Phosphate […] pH 7.5). The samples are vortexed and the fluorescence is read in a 0.5 ml micro quartz cuvette at EX 450 nm and EM 482 nm (Hitachi 4500 Fluorimeter).
The modulators were evaluated in the nucleation and seeded extension assays described in Example 6 and the results are summarized below in Table V. The change in lag time (ΔLag) is presented as the ratio of the lag time observed in the presence of the test compound to the lag time of the control. […] Inhibition (% Inucl'n) is listed as the percent reduction in the maximum observed turbidity in the control at the end of the assay time period. […]

Structures are written as SMILES. Numbered stars: 1 amine (or outer) side, 2 acyl side, 3 side chain; on linkers, the order of the positions; unused ones are H or OH. Square brackets hold non-standard residues; d marks the D form. Peptide text beside a SMILES is read from it. * marks the point of attachment. Cholyl = C[C@H](CCC(=O)*)[C@H]1CC[C@H]2[C@@H]3[C@H](O)C[C@@H]4C[C@H](O)CC[C@]4(C)[C@H]3C[C@H](O)[C@]12C; X2 = O=C(C1(O)C[C@H](O)[C@@H](N[*:1])[C@H]([C@H](O)[C@H](O)CO)O1)[*:2]; Tyr(3-I) = N[C@@H](Cc1ccc(O)c(I)c1)C(=O)O; βAla = NCCC(=O)O
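For % Inhibition of Plateau in this document: Aβ nucleation assay tracking fiber polymerization from monomer by turbidity (light scattering), shaken continuously in 96-well plates, read every 15 min over 5 h, compared with compound-free control.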

T1 sequence (P05067 672-711): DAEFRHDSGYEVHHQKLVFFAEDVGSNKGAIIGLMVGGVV

On to `C[C@H](CCC(=O)O)[C@H]1CC[C@H]2[C@@H]3[C@H](O)C[C@@H]4C[C@H](O)CC[C@]4(C)[C@H]3C[C@H](O)[C@]12C` [PPI-293, Cholic acid, reference compound], for which the “inhibitory activity on Aβ aggregation” value in assay [1] is recorded as “had no effect on Aβ aggregation”. The inhibition at 100 % in assay [2] turned out to be 0%.
In the case of `CC(C)C[C@H](NC(=O)[C@H](CCCCN)NC(=O)[C@H](CCC(N)=O)NC(=O)[C@H](Cc1c[nH]cn1)NC(=O)CC[C@@H](C)[C@H]1CC[C@H]2[C@@H]3[C@H](O)C[C@@H]4C[C@H](O)CC[C@]4(C)[C@H]3C[C@H](O)[C@]12C)C(=O)N[C@H](C(=O)N[C@@H](Cc1ccccc1)C(=O)N[C@@H](Cc1ccccc1)C(N)=O)C(C)C` [PPI-315] (Cholyl-HQKLVFF-NH2), the inhibition at 33 % in assay [2] was found to be 5%.
Take `CC(=O)N[C@H]1[C@H]([C@H](O)[C@H](O)CO)OC(O)(C(=O)N[C@@H](Cc2c[nH]cn2)C(=O)N[C@@H](CCC(N)=O)C(=O)N[C@@H](CCCCN)C(=O)N[C@@H](CC(C)C)C(=O)N[C@H](C(=O)N[C@@H](Cc2ccccc2)C(=O)N[C@@H](Cc2ccccc2)C(N)=O)C(C)C)C[C@@H]1O` (some centres unmarked) [PPI-316] (Ac-[X2]HQKLVFF-NH2): in assay [2], the inhibition at 100 % is -15%.
As for `CC(C)C[C@H](NC(=O)[C@H](CCCCN)NC(=O)[C@H](CCC(N)=O)NC(=O)[C@H](Cc1c[nH]cn1)NC(=O)CC[C@@H](C)[C@H]1CC[C@H]2[C@@H]3[C@H](O)C[C@@H]4C[C@H](O)CC[C@]4(C)[C@H]3C[C@H](O)[C@]12C)C(=O)N[C@H](C(=O)N[C@@H](Cc1ccccc1)C(=O)N[C@@H](Cc1ccccc1)C(=O)O)C(C)C` [PPI-348] (Cholyl-HQKLVFF-OH), the “% Inhibition of Plateau” value in assay [1] stood at 49%. In addition, the inhibition at 33 % in assay [2] was 70%.
For `CC(C)C[C@H](NC(=O)[C@H](CCCCN)NC(=O)[C@H](CCC(N)=O)NC(=O)CC[C@@H](C)[C@H]1CC[C@H]2[C@@H]3[C@H](O)C[C@@H]4C[C@H](O)CC[C@]4(C)[C@H]3C[C@H](O)[C@]12C)C(=O)N[C@H](C(=O)N[C@@H](Cc1ccccc1)C(=O)N[C@@H](Cc1ccccc1)C(=O)O)C(C)C` [PPI-349, cholyl-Aβ15-20], the “% Iext'n (percent reduction of thioflavin-T fluorescence)” value in assay [3] came out at 56%. For the same molecule, the inhibition at 100 % in assay [2] amounted to 100%.
As to `CC(C)C[C@H](NC(=O)[C@H](CCCCN)NC(=O)CC[C@@H](C)[C@H]1CC[C@H]2[C@@H]3[C@H](O)C[C@@H]4C[C@H](O)CC[C@]4(C)[C@H]3C[C@H](O)[C@]12C)C(=O)N[C@H](C(=O)N[C@@H](Cc1ccccc1)C(=O)N[C@@H](Cc1ccccc1)C(=O)O)C(C)C` [PPI-350, cholyl-Aβ16-20], the “% Iext'n (percent reduction of thioflavin-T fluorescence)” value in assay [3] came out at 11%.
As for `CC(C)C[C@H](NC(=O)[C@H](CCCCN)NC(=O)CC[C@@H](C)[C@H]1CC[C@H]2[C@@H]3[C@H](O)C[C@@H]4C[C@H](O)CC[C@]4(C)[C@H]3C[C@H](O)[C@]12C)C(=O)N[C@H](C(=O)N[C@@H](Cc1ccccc1)C(=O)N[C@@H](Cc1ccccc1)C(=O)O)[C@@H](C)O` [PPI-369] (Cholyl-KLTFF-OH), the “% Inhibition of Plateau” value in assay [1] was ~ 0%. Moreover, the “% Iext'n (percent reduction of thioflavin-T fluorescence)” value in assay [3] came out at 44%.
The matching figures for `CC(C)C[C@H](NC(=O)[C@H](CCCCN)NC(=O)CC[C@@H](C)[C@H]1CC[C@H]2[C@@H]3[C@H](O)C[C@@H]4C[C@H](O)CC[C@]4(C)[C@H]3C[C@H](O)[C@]12C)C(=O)N[C@H](C(=O)N[C@@H](C)C(=O)N[C@@H](Cc1ccccc1)C(=O)O)C(C)C` [PPI-370, cholyl-Aβ16-20 Phe19- >Ala] (Cholyl-KLVAF-OH): 73% and 31%.
`CC(C)C[C@H](NC(=O)[C@H](CCCCN)NC(=O)CC[C@@H](C)[C@H]1CC[C@H]2[C@@H]3[C@H](O)C[C@@H]4C[C@H](O)CC[C@]4(C)[C@H]3C[C@H](O)[C@]12C)C(=O)N[C@H](C(=O)N[C@@H](Cc1ccccc1)C(=O)N[C@@H](Cc1ccccc1)C(=O)NCCC(=O)O)C(C)C` [PPI-371] (Cholyl-KLVFF[βAla]-OH): the “% Iext'n (percent reduction of thioflavin-T fluorescence)” value in assay [3] came to 80%. The inhibition at 100 % in assay [2] worked out at 76%.
On to `CC(C)C[C@H](NC(=O)[C@@H](NC(=O)[C@H](Cc1ccccc1)NC(=O)[C@H](CCCCN)NC(=O)[C@H](Cc1ccccc1)NC(=O)CC[C@@H](C)[C@H]1CC[C@H]2[C@@H]3[C@H](O)C[C@@H]4C[C@H](O)CC[C@]4(C)[C@H]3C[C@H](O)[C@]12C)C(C)C)C(=O)O` [PPI-372] (Cholyl-FKFVL-OH), for which the “% Iext'n (percent reduction of thioflavin-T fluorescence)” value in assay [3] was 37%. For the same molecule, in assay [2], the inhibition at 100 % was 45%.
In the case of `CC(C)C[C@H](NC(=O)[C@H](CCCCN)NC(=O)CCCC[C@@H]1SC[C@@H]2NC(=N)N[C@@H]21)C(=O)N[C@H](C(=O)N[C@@H](Cc1ccccc1)C(=O)N[C@@H](Cc1ccccc1)C(=O)O)C(C)C` [PPI-374, iminobiotinyl-Aβ16-20], the “% Inhibition of Plateau” value in assay [1] amounted to 86%. In assay [3], the “% Iext'n (percent reduction of thioflavin-T fluorescence)” value was 0%.
On to `CC(C)C[C@H](NC(=O)CC[C@@H](C)[C@H]1CC[C@H]2[C@@H]3[C@H](O)C[C@@H]4C[C@H](O)CC[C@]4(C)[C@H]3C[C@H](O)[C@]12C)C(=O)N[C@H](C(=O)N[C@@H](Cc1ccccc1)C(=O)N[C@@H](C)C(=O)N[C@@H](C)C(=O)O)C(C)C` [PPI-391] (Cholyl-LVFAA-OH), for which, in assay [2], the inhibition at 100 % was 40%.
Still for that read-out and setting: the figure for `CC(C)C[C@H](NC(=O)CC[C@@H](C)[C@H]1CC[C@H]2[C@@H]3[C@H](O)C[C@@H]4C[C@H](O)CC[C@]4(C)[C@H]3C[C@H](O)[C@]12C)C(=O)N[C@H](C(=O)N[C@@H](Cc1ccc(O)c(I)c1)C(=O)N[C@@H](Cc1ccccc1)C(=O)N[C@@H](C)C(=O)O)C(C)C` [PPI-396] (Cholyl-LV[Tyr(3-I)]FA-OH) is 100%; for `CC(C)C[C@H](NC(=O)CC[C@@H](C)[C@H]1CC[C@H]2[C@@H]3[C@H](O)C[C@@H]4C[C@H](O)CC[C@]4(C)[C@H]3C[C@H](O)[C@]12C)C(=O)N[C@H](C(=O)N[C@@H](Cc1ccccc1)C(=O)N[C@@H](Cc1ccc(O)c(I)c1)C(=O)N[C@@H](C)C(=O)O)C(C)C` [PPI-397] (Cholyl-LVF[Tyr(3-I)]A-OH) it is 95%; for `CC(C)[C@H](NC(=O)[C@H](C)NC(=O)CC[C@@H](C)[C@H]1CC[C@H]2[C@@H]3[C@H](O)C[C@@H]4C[C@H](O)CC[C@]4(C)[C@H]3C[C@H](O)[C@]12C)C(=O)N[C@@H](C)C(=O)N[C@@H](Cc1ccccc1)C(=O)N[C@@H](C)C(=O)O` [PPI-400] (Cholyl-AVAFA-OH) it is -15%.
Regarding `COC(=O)[C@H](C)NC(=O)[C@H](Cc1ccccc1)NC(=O)[C@H](Cc1ccccc1)NC(=O)[C@@H](NC(=O)[C@H](CC(C)C)NC(=O)CC[C@@H](C)[C@H]1CC[C@H]2[C@@H]3[C@H](O)C[C@@H]4C[C@H](O)CC[C@]4(C)[C@H]3C[C@H](O)[C@]12C)C(C)C` [PPI-401], the “% Iext'n (percent reduction of thioflavin-T fluorescence)” value in assay [3] is reported as 0%.
Turning to `CC(C)C[C@@H](NC(=O)CC[C@@H](C)[C@H]1CC[C@H]2[C@@H]3[C@H](O)C[C@@H]4C[C@H](O)CC[C@]4(C)[C@H]3C[C@H](O)[C@]12C)C(=O)N[C@@H](C(=O)N[C@H](Cc1ccccc1)C(=O)N[C@H](Cc1ccccc1)C(=O)N[C@H](C)C(=O)O)C(C)C` [PPI-433], in assay [2], the inhibition at 100 % was determined as 27%.
As to `C[C@H](CCC(=O)NCC(=O)N[C@@H](Cc1ccccc1)C(=O)N[C@@H](Cc1ccccc1)C(=O)O)[C@H]1CC[C@H]2[C@@H]3[C@H](O)C[C@@H]4C[C@H](O)CC[C@]4(C)[C@H]3C[C@H](O)[C@]12C` [PPI-438], the inhibition at 100 % in assay [2] was 0%.
